{"source": "patent US20240174618A1", "about": "“SUBSTITUTED (2-HETEROARYLOXYPHENYL)SULFONATES, SALTS THEREOF AND THEIR USE AS HERBICIDAL AGENTS” (Bayer Aktiengesellschaft, priority 2021, published 2024)", "assay_type_in_all_cases": "in vivo", "key": {"[1]": {"system": "Abutilon theophrasti (ABUTH)", "assay": "A. Herbicidal pre-emergence efficacy, ABUTH", "settings": "scored visually after about 3 weeks vs untreated controls", "how_it_was_run": "(§1)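 Applied before emergence onto covering soil at rates of 1280 g/ha or less, using 600 L/ha spray water with 0.5% additive. Scoring: visual % efficacy after ~3 weeks, greenhouse.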"}, "Stellaria media (STEME)": {"system": "Stellaria media (STEME)", "assay": "A. Herbicidal pre-emergence efficacy, STEME", "how_it_was_run": "as §1"}, "Setaria viridis (SETVI) [2]": {"system": "Setaria viridis (SETVI)", "assay": "B. Herbicidal post-emergence efficacy, SETVI", "how_it_was_run": "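First, seeds were sown in sandy loam and grown 2 to 3 weeks under controlled greenhouse conditions. Next, foliage at the one-leaf stage received the formulated compound in water with 0.5% additive (600 L/ha, 1280 g/ha or less). Finally, damage was rated visually after about 3 weeks against untreated plants.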"}, "[3]": {"system": "Amaranthus retroflexus (AMARE)", "assay": "C. Herbicidal pre-emergence efficacy, AMARE", "settings": "scored after about 3 weeks", "how_it_was_run": "(§2)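 Pre-emergence test: formulated compounds sprayed as aqueous suspension or emulsion with 0.5% additive at 600 l/ha onto soil covering sown seeds, at rates corresponding to 320 g/ha or less. After about 3 weeks in greenhouse, efficacy scored visually as percent versus untreated controls (100% = plants dead).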"}, "Setaria viridis (SETVI) [4]": {"system": "Setaria viridis (SETVI)", "assay": "C. Herbicidal pre-emergence efficacy, SETVI", "settings": "scored after about 3 weeks", "how_it_was_run": "as §2"}, "[5]": {"system": "Echinochloa crus-galli (ECHCG)", "assay": "E. Herbicidal post-emergence efficacy, ECHCG", "how_it_was_run": "(§3)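 Compounds applied at 320 g/ha or less as a foliar spray (600 l/ha, 0.5% additive) to one-leaf-stage greenhouse plants grown in sandy loam. Damage is visually scored in percent relative to untreated plants after about 3 weeks.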"}, "Setaria viridis (SETVI) [6]": {"system": "Setaria viridis (SETVI)", "assay": "E. Herbicidal post-emergence efficacy, SETVI", "how_it_was_run": "as §3"}, "Viola tricolor (VIOTR)": {"system": "Viola tricolor (VIOTR)", "assay": "E. Herbicidal post-emergence efficacy, VIOTR", "how_it_was_run": "as §3"}}, "data": [{"molecule": "O=S(=O)(CCCC(F)(F)F)Oc1ccccc1Oc1ncc(Cl)cn1", "note": "[Example I-10]", "values": [{"measurement": "Pre-emergence efficacy against ABUTH", "setting": "[1]; 80 g/ha", "result": 100, "unit": "%"}, {"measurement": "Pre-emergence efficacy against ABUTH", "setting": "[1]; 320 g/ha", "result": 100, "unit": "%"}, {"measurement": "Pre-emergence efficacy against ABUTH", "setting": "[1]; 1280 g/ha", "result": 100, "unit": "%"}, {"measurement": "Pre-emergence efficacy against STEME", "setting": "Stellaria media (STEME); dosage 80 g/ha", "result": 100, "unit": "%"}, {"measurement": "Pre-emergence efficacy against STEME", "setting": "Stellaria media (STEME); dosage 320 g/ha", "result": 100, "unit": "%"}, {"measurement": "Pre-emergence efficacy against STEME", "setting": "Stellaria media (STEME); dosage 1280 g/ha", "result": 100, "unit": "%"}, {"measurement": "Post-emergence efficacy against SETVI", "setting": "Setaria viridis (SETVI) [2]; 320 g/ha", "result": 100, "unit": "%"}, {"measurement": "Post-emergence efficacy against SETVI", "setting": "Setaria viridis (SETVI) [2]; 1280 g/ha", "result": 100, "unit": "%"}, {"measurement": "Pre-emergence efficacy against AMARE", "setting": "[3]; 80 g/ha", "result": 100, "unit": "%"}, {"measurement": "Pre-emergence efficacy against AMARE", "setting": "[3]; 320 g/ha", "result": 100, "unit": "%"}, {"measurement": "Pre-emergence efficacy against SETVI", "setting": "Setaria viridis (SETVI) [4]; 80 g/ha", "result": 100, "unit": "%"}, {"measurement": "Pre-emergence efficacy against SETVI", "setting": "Setaria viridis (SETVI) [4]; 320 g/ha", "result": 100, "unit": "%"}, {"measurement": "Post-emergence efficacy against ECHCG in %", "setting": "[5]; application rate 80 g/ha", "result": 90, "unit": "%"}, {"measurement": "Post-emergence efficacy against ECHCG in %", "setting": "[5]; application rate 320 g/ha", "result": 90, "unit": "%"}, {"measurement": "Post-emergence efficacy against SETVI in %", "setting": "Setaria viridis (SETVI) [6]; application rate 80 g/ha", "result": 100, "unit": "%"}, {"measurement": "Post-emergence efficacy against SETVI in %", "setting": "Setaria viridis (SETVI) [6]; application rate 320 g/ha", "result": 100, "unit": "%"}, {"measurement": "Post-emergence efficacy against VIOTR in %", "setting": "Viola tricolor (VIOTR); application rate 80 g/ha", "result": 90, "unit": "%"}, {"measurement": "Post-emergence efficacy against VIOTR in %", "setting": "Viola tricolor (VIOTR); application rate 320 g/ha", "result": 100, "unit": "%"}]}, {"molecule": "O=S(=O)(CCCCl)Oc1c(F)cccc1Oc1ncc(Cl)cn1", "note": "[Example I-14]", "values": [{"measurement": "Pre-emergence efficacy against ABUTH", "setting": "[1]; 80 g/ha", "result": 100, "unit": "%"}, {"measurement": "Pre-emergence efficacy against ABUTH", "setting": "[1]; 320 g/ha", "result": 100, "unit": "%"}, {"measurement": "Pre-emergence efficacy against ABUTH", "setting": "[1]; 1280 g/ha", "result": 100, "unit": "%"}, {"measurement": "Pre-emergence efficacy against STEME", "setting": "Stellaria media (STEME); dosage 80 g/ha", "result": 100, "unit": "%"}, {"measurement": "Pre-emergence efficacy against STEME", "setting": "Stellaria media (STEME); dosage 320 g/ha", "result": 100, "unit": "%"}, {"measurement": "Pre-emergence efficacy against STEME", "setting": "Stellaria media (STEME); dosage 1280 g/ha", "result": 100, "unit": "%"}, {"measurement": "Post-emergence efficacy against SETVI", "setting": "Setaria viridis (SETVI) [2]; 320 g/ha", "result": 90, "unit": "%"}, {"measurement": "Post-emergence efficacy against SETVI", "setting": "Setaria viridis (SETVI) [2]; 1280 g/ha", "result": 100, "unit": "%"}, {"measurement": "Pre-emergence efficacy against AMARE", "setting": "[3]; 80 g/ha", "result": 100, "unit": "%"}, {"measurement": "Pre-emergence efficacy against AMARE", "setting": "[3]; 320 g/ha", "result": 100, "unit": "%"}, {"measurement": "Pre-emergence efficacy against SETVI", "setting": "Setaria viridis (SETVI) [4]; 80 g/ha", "result": 100, "unit": "%"}, {"measurement": "Pre-emergence efficacy against SETVI", "setting": "Setaria viridis (SETVI) [4]; 320 g/ha", "result": 100, "unit": "%"}, {"measurement": "Post-emergence efficacy against ECHCG in %", "setting": "[5]; application rate 80 g/ha", "result": 90, "unit": "%"}, {"measurement": "Post-emergence efficacy against ECHCG in %", "setting": "[5]; application rate 320 g/ha", "result": 100, "unit": "%"}, {"measurement": "Post-emergence efficacy against SETVI in %", "setting": "Setaria viridis (SETVI) [6]; application rate 80 g/ha", "result": 100, "unit": "%"}, {"measurement": "Post-emergence efficacy against SETVI in %", "setting": "Setaria viridis (SETVI) [6]; application rate 320 g/ha", "result": 100, "unit": "%"}, {"measurement": "Post-emergence efficacy against VIOTR in %", "setting": "Viola tricolor (VIOTR); application rate 80 g/ha", "result": 90, "unit": "%"}, {"measurement": "Post-emergence efficacy against VIOTR in %", "setting": "Viola tricolor (VIOTR); application rate 320 g/ha", "result": 90, "unit": "%"}]}, {"molecule": "O=S(=O)(CCCCl)Oc1ccccc1Oc1ncc(Cl)cn1", "note": "[Example I-2]", "values": [{"measurement": "Pre-emergence efficacy against ABUTH", "setting": "[1]; 80 g/ha", "result": 100, "unit": "%"}, {"measurement": "Pre-emergence efficacy against ABUTH", "setting": "[1]; 320 g/ha", "result": 100, "unit": "%"}, {"measurement": "Pre-emergence efficacy against ABUTH", "setting": "[1]; 1280 g/ha", "result": 100, "unit": "%"}, {"measurement": "Pre-emergence efficacy against STEME", "setting": "Stellaria media (STEME); dosage 80 g/ha", "result": 100, "unit": "%"}, {"measurement": "Pre-emergence efficacy against STEME", "setting": "Stellaria media (STEME); dosage 320 g/ha", "result": 100, "unit": "%"}, {"measurement": "Pre-emergence efficacy against STEME", "setting": "Stellaria media (STEME); dosage 1280 g/ha", "result": 100, "unit": "%"}, {"measurement": "Post-emergence efficacy against SETVI", "setting": "Setaria viridis (SETVI) [2]; 320 g/ha", "result": 100, "unit": "%"}, {"measurement": "Post-emergence efficacy against SETVI", "setting": "Setaria viridis (SETVI) [2]; 1280 g/ha", "result": 100, "unit": "%"}, {"measurement": "Pre-emergence efficacy against AMARE", "setting": "[3]; 80 g/ha", "result": 100, "unit": "%"}, {"measurement": "Pre-emergence efficacy against AMARE", "setting": "[3]; 320 g/ha", "result": 100, "unit": "%"}, {"measurement": "Pre-emergence efficacy against SETVI", "setting": "Setaria viridis (SETVI) [4]; 80 g/ha", "result": 100, "unit": "%"}, {"measurement": "Pre-emergence efficacy against SETVI", "setting": "Setaria viridis (SETVI) [4]; 320 g/ha", "result": 100, "unit": "%"}, {"measurement": "Post-emergence efficacy against ECHCG in %", "setting": "[5]; application rate 320 g/ha", "result": 100, "unit": "%"}, {"measurement": "Post-emergence efficacy against SETVI in %", "setting": "Setaria viridis (SETVI) [6]; application rate 80 g/ha", "result": 100, "unit": "%"}, {"measurement": "Post-emergence efficacy against SETVI in %", "setting": "Setaria viridis (SETVI) [6]; application rate 320 g/ha", "result": 100, "unit": "%"}, {"measurement": "Post-emergence efficacy against VIOTR in %", "setting": "Viola tricolor (VIOTR); application rate 320 g/ha", "result": 100, "unit": "%"}]}, {"molecule": "COCCS(=O)(=O)Oc1c(F)cccc1Oc1ncc(Cl)cn1", "note": "[Example I-52]", "values": [{"measurement": "Pre-emergence efficacy against ABUTH", "setting": "[1]; 320 g/ha", "result": 100, "unit": "%"}, {"measurement": "Pre-emergence efficacy against ABUTH", "setting": "[1]; 1280 g/ha", "result": 100, "unit": "%"}, {"measurement": "Pre-emergence efficacy against STEME", "setting": "Stellaria media (STEME); dosage 80 g/ha", "result": 90, "unit": "%"}, {"measurement": "Pre-emergence efficacy against STEME", "setting": "Stellaria media (STEME); dosage 320 g/ha", "result": 90, "unit": "%"}, {"measurement": "Pre-emergence efficacy against STEME", "setting": "Stellaria media (STEME); dosage 1280 g/ha", "result": 100, "unit": "%"}, {"measurement": "Post-emergence efficacy against SETVI", "setting": "Setaria viridis (SETVI) [2]; 1280 g/ha", "result": 90, "unit": "%"}, {"measurement": "Pre-emergence efficacy against AMARE", "setting": "[3]; 80 g/ha", "result": 100, "unit": "%"}, {"measurement": "Pre-emergence efficacy against AMARE", "setting": "[3]; 320 g/ha", "result": 100, "unit": "%"}, {"measurement": "Pre-emergence efficacy against SETVI", "setting": "Setaria viridis (SETVI) [4]; 320 g/ha", "result": 100, "unit": "%"}, {"measurement": "Post-emergence efficacy against ECHCG in %", "setting": "[5]; application rate 320 g/ha", "result": 100, "unit": "%"}, {"measurement": "Post-emergence efficacy against SETVI in %", "setting": "Setaria viridis (SETVI) [6]; application rate 320 g/ha", "result": 80, "unit": "%"}, {"measurement": "Post-emergence efficacy against VIOTR in %", "setting": "Viola tricolor (VIOTR); application rate 320 g/ha", "result": 80, "unit": "%"}]}]}
